From PubChem BioAssay (NCI)
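In this assay, cells in 96-well plates receive the compound at five concentrations for 48 hours. Endpoints are linearly interpolated between the surrounding concentrations. GI50 is the concentration that inhibits growth by half. TGI: total growth inhibition.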

What was measured:
Test in all cases: NCI anticancer screen, dose series, 48 h
MCF7 breast = system: MCF7 breast
EKVX NSCLC = system: EKVX NSCLC
CAKI-1 renal = system: CAKI-1 renal
HOP-92 NSCLC = system: HOP-92 NSCLC
OVCAR-8 ovarian = system: OVCAR-8 ovarian
A549 NSCLC = system: A549 NSCLC
BT-549 breast = system: BT-549 breast
MDA-MB-435 = system: MDA-MB-435
IGROV1 ovarian = system: IGROV1 ovarian
SN12C renal = system: SN12C renal
A498 renal = system: A498 renal
KM12 colon = system: KM12 colon
HOP-62 NSCLC = system: HOP-62 NSCLC
HS 578T breast = system: HS 578T breast
RXF 393 renal = system: RXF 393 renal
COLO 205 colon = system: COLO 205 colon
T-47D breast = system: T-47D breast
786-0 renal = system: 786-0 renal
UO-31 renal = system: UO-31 renal
NCI/ADR-RES ovarian = system: NCI/ADR-RES ovarian
SK-MEL-5 melanoma = system: SK-MEL-5 melanoma
CCRF-CEM leukemia = system: CCRF-CEM leukemia
U251 CNS = system: U251 CNS
HCC-2998 colon = system: HCC-2998 colon
OVCAR-3 ovarian = system: OVCAR-3 ovarian
MDA-MB-231 breast = system: MDA-MB-231 breast
HCT-116 colon = system: HCT-116 colon
SNB-19 CNS = system: SNB-19 CNS
PC-3 prostate = system: PC-3 prostate
MOLT-4 leukemia = system: MOLT-4 leukemia
K-562 leukemia = system: K-562 leukemia
SF-539 CNS = system: SF-539 CNS
SW-620 colon = system: SW-620 colon
SR leukemia = system: SR leukemia
MALME-3M melanoma = system: MALME-3M melanoma
NCI-H226 lung = system: NCI-H226 lung
SK-OV-3 ovarian = system: SK-OV-3 ovarian
HL-60(TB) leukemia = system: HL-60(TB) leukemia
SNB-75 CNS = system: SNB-75 CNS
SF-295 CNS = system: SF-295 CNS
UACC-62 melanoma = system: UACC-62 melanoma
UACC-257 melanoma = system: UACC-257 melanoma
OVCAR-5 ovarian = system: OVCAR-5 ovarian
NCI-H23 lung = system: NCI-H23 lung
NCI-H460 lung = system: NCI-H460 lung
DU-145 prostate = system: DU-145 prostate
OVCAR-4 ovarian = system: OVCAR-4 ovarian
TK-10 renal = system: TK-10 renal
SK-MEL-28 melanoma = system: SK-MEL-28 melanoma
SF-268 CNS = system: SF-268 CNS
ACHN renal = system: ACHN renal
HCT-15 colon = system: HCT-15 colon
RPMI-8226 leukemia = system: RPMI-8226 leukemia
M14 melanoma = system: M14 melanoma
NCI-H522 lung = system: NCI-H522 lung
SK-MEL-2 melanoma = system: SK-MEL-2 melanoma
LOX IMVI melanoma = system: LOX IMVI melanoma
HT29 colon = system: HT29 colon

With `C=CC(=O)N1CCC(c2ccc(C(N)=O)c(-c3ccc(Oc4ccccc4)cc3)n2)CC1` the GI50 (MCF7 breast) was 22.7 µM, the TGI (MCF7 breast) was > 100 µM and the GI50 (EKVX NSCLC) was 21.5 µM. The TGI (EKVX NSCLC) was > 100 µM, the GI50 (CAKI-1 renal) was 15.8 µM and the TGI (CAKI-1 renal) was > 100 µM. The GI50 (HOP-92 NSCLC) was 10.4 µM, the TGI (HOP-92 NSCLC) was 76.6 µM and the GI50 (OVCAR-8 ovarian) was 30.9 µM. The TGI (OVCAR-8 ovarian) was > 100 µM, the GI50 (A549 NSCLC) was 28.9 µM and the TGI (A549 NSCLC) was > 100 µM. It also gave a GI50 (BT-549 breast) of 22.7 µM, a TGI (BT-549 breast) of 95.4 µM and a GI50 (MDA-MB-435) of 29.1 µM. For the same compound, the TGI (MDA-MB-435) was > 100 µM, the GI50 (IGROV1 ovarian) was 19.1 µM and the TGI (IGROV1 ovarian) was > 100 µM. For the same compound, the GI50 (SN12C renal) was 28.2 µM, the TGI (SN12C renal) was > 100 µM and the GI50 (A498 renal) was 12.8 µM. The TGI (A498 renal) was 50.1 µM, the GI50 (KM12 colon) was 39.6 µM and the TGI (KM12 colon) was > 100 µM. For the same compound, the GI50 (HOP-62 NSCLC) was 56.2 µM, the TGI (HOP-62 NSCLC) was > 100 µM and the GI50 (HS 578T breast) was 37.2 µM. The TGI (HS 578T breast) was > 100 µM, the GI50 (RXF 393 renal) was 12.5 µM and the TGI (RXF 393 renal) was 53.6 µM. For the same compound, the GI50 (COLO 205 colon) was 42 µM, the TGI (COLO 205 colon) was > 100 µM and the GI50 (T-47D breast) was 16.1 µM. For the same compound, the TGI (T-47D breast) was 95.7 µM, the GI50 (786-0 renal) was 31.9 µM and the TGI (786-0 renal) was > 100 µM. The GI50 (UO-31 renal) was 12.9 µM, the TGI (UO-31 renal) was > 100 µM and the GI50 (NCI/ADR-RES ovarian) was 30.3 µM. For the same compound, the TGI (NCI/ADR-RES ovarian) was > 100 µM, the GI50 (SK-MEL-5 melanoma) was 20.6 µM and the TGI (SK-MEL-5 melanoma) was 41.9 µM. For the same compound, the GI50 (CCRF-CEM leukemia) was 33.9 µM, the TGI (CCRF-CEM leukemia) was > 100 µM and the GI50 (U251 CNS) was 32.4 µM. For the same compound, the TGI (U251 CNS) was > 100 µM, the GI50 (HCC-2998 colon) was 58.1 µM and the TGI (HCC-2998 colon) was > 100 µM. The GI50 (OVCAR-3 ovarian) was 36 µM, the TGI (OVCAR-3 ovarian) was > 100 µM and the GI50 (MDA-MB-231 breast) was 39 µM. For the same compound, the TGI (MDA-MB-231 breast) was > 100 µM, the GI50 (HCT-116 colon) was 35.9 µM and the TGI (HCT-116 colon) was > 100 µM. For the same compound, the GI50 (SNB-19 CNS) was 47.9 µM, the TGI (SNB-19 CNS) was > 100 µM and the GI50 (PC-3 prostate) was 29.5 µM. The TGI (PC-3 prostate) was > 100 µM, the GI50 (MOLT-4 leukemia) was 27.3 µM and the TGI (MOLT-4 leukemia) was > 100 µM. For the same compound, the GI50 (K-562 leukemia) was 26.9 µM, the TGI (K-562 leukemia) was > 100 µM and the GI50 (SF-539 CNS) was 40.3 µM. The TGI (SF-539 CNS) was > 100 µM, the GI50 (SW-620 colon) was 41.2 µM and the TGI (SW-620 colon) was > 100 µM. The GI50 (SR leukemia) was 28 µM, the TGI (SR leukemia) was > 100 µM and the GI50 (MALME-3M melanoma) was 36.1 µM. The TGI (MALME-3M melanoma) was > 100 µM, the GI50 (NCI-H226 lung) was 20.3 µM and the TGI (NCI-H226 lung) was 79.2 µM. The GI50 (SK-OV-3 ovarian) was 23.4 µM, the TGI (SK-OV-3 ovarian) was > 100 µM and the GI50 (HL-60(TB) leukemia) was 19.5 µM. The TGI (HL-60(TB) leukemia) was 58.8 µM, the GI50 (SNB-75 CNS) was 17 µM and the TGI (SNB-75 CNS) was > 100 µM. For the same compound, the GI50 (SF-295 CNS) was 27.3 µM, the TGI (SF-295 CNS) was > 100 µM and the GI50 (UACC-62 melanoma) was 30 µM. For the same compound, the TGI (UACC-62 melanoma) was > 100 µM, the GI50 (UACC-257 melanoma) was 27.9 µM and the TGI (UACC-257 melanoma) was > 100 µM. The GI50 (OVCAR-5 ovarian) was > 100 µM, the TGI (OVCAR-5 ovarian) was > 100 µM and the GI50 (NCI-H23 lung) was 34.6 µM. For the same compound, the TGI (NCI-H23 lung) was > 100 µM, the GI50 (NCI-H460 lung) was 46.2 µM and the TGI (NCI-H460 lung) was > 100 µM. For the same compound, the GI50 (DU-145 prostate) was 31.7 µM, the TGI (DU-145 prostate) was > 100 µM and the GI50 (OVCAR-4 ovarian) was 21.6 µM. For the same compound, the TGI (OVCAR-4 ovarian) was > 100 µM, the GI50 (TK-10 renal) was 19.2 µM and the TGI (TK-10 renal) was 99.4 µM. For the same compound, the GI50 (SK-MEL-28 melanoma) was 51.5 µM, the TGI (SK-MEL-28 melanoma) was > 100 µM and the GI50 (SF-268 CNS) was 50.5 µM. The TGI (SF-268 CNS) was > 100 µM, the GI50 (ACHN renal) was 25.3 µM and the TGI (ACHN renal) was > 100 µM. The GI50 (HCT-15 colon) was 25.2 µM, the TGI (HCT-15 colon) was > 100 µM and the GI50 (RPMI-8226 leukemia) was 20.4 µM. For the same compound, the TGI (RPMI-8226 leukemia) was 73.7 µM, the GI50 (M14 melanoma) was 34.3 µM and the TGI (M14 melanoma) was > 100 µM. For the same compound, the GI50 (NCI-H522 lung) was 11.2 µM, the TGI (NCI-H522 lung) was 60.3 µM and the GI50 (SK-MEL-2 melanoma) was 27.1 µM. For the same compound, the TGI (SK-MEL-2 melanoma) was > 100 µM, the GI50 (LOX IMVI melanoma) was 26.3 µM and the TGI (LOX IMVI melanoma) was > 100 µM. The GI50 (HT29 colon) was 46.7 µM and the TGI (HT29 colon) was > 100 µM.
